Test results from article PMC8711299, “Rational Designed Hybrid Peptides Show up to a 6-Fold Increase in Antimicrobial Activity and Demonstrate Different Ultrastructural Changes as the Parental Peptides Measured by BioSAXS” (Frontiers in Pharmacology, 2021).
In brackets after ≈: the same amount, converted by molar mass. Positions of bridges follow the written chain, without caps; N, C: chain ends. Residues, ends and D or L forms follow the SMILES beside them. No end group written: not given here.

Experiments:
[1] = tested on: E. coli; test: MIC of standard antibiotics against E. coli (BioSAXS comparison); assay type: cell-based, Escherichia coli; conditions: used at 3x MIC, 240 min incubation, for BioSAXS
Description: To discuss the obtained results in the context of conventional antibiotics, compared the peptides to three antibiotics, tigecycline (bacteriostatic activity by binding to the […] ribosomal subunit of the bacterial ribosome), chloramphenicol (bacteriostatic activity by binding to the […] ribosomal subunit of the bacterial ribosome), and rifampicin (bactericidal activity by inhibiting the DNA-dependent RNA polymerase activity), see Figure 5. […] As the antibiotics have slower kill kinetics than the AMPs, 240 min incubation time was used. […] The PCA values of Bac5-v291 and hyP7B5GK deviate strongly from the untreated controls and the standard antibiotics. The PCA values of peptides hyP7B5Cys and optP7 are nearest to chloramphenicol.

[2] = tested on: E. coli; assay type: cell-based, Escherichia coli
Description: (§1) In this project the following bacterial strains were used: 1) methicillin-resistant Staphylococcus aureus (S. aureus) HO 5096 0412 (a neonatal infection isolate, isolated in Ipswich, England in 2005, obtained from Jody Lindsay (St. George’s, University of London), 2) Escherichia coli (E. coli, UB1005, F-, LAM-, gyrA37, relA1, spoT1, metB1, LAMR) used solely for transmission electron microscopy, E. coli (ATCC 25922), 3) Pseudomonas aeruginosa PAO1 obtained from Dr Robert E.W. Hancock (Department of Microbiology and Immunology, University of British Columbia).
(§2) Mueller-Hinton broth (MHb) (Merck, Life Science UK Limited, Dorset, UK)) was prepared concurring to the manufacturer’s directions was used to grow the bacterial strains. Liquid bacterial cultures were incubated at 37°C for 18–20 h on a shaker, bacterial culture on solid media was incubated for 18–24 h at 37°C.
(§3) A broth microdilution assay was applied to determine the minimum inhibitory concentrations (MIC) in MHb for both, using 5 × 10^5 CFU/ml (MICs in Table 1) and 10^8 CFU/ml (BioSAXS and electron microscopy, values in Table 2). A detailed description of the method can be found in the open-source publication by von Gundlach et al. (von Gundlach et al., 2019a).

[3] = tested on: methicillin-resistant Staphylococcus aureus HO 5096 0412 (MRSA); assay type: cell-based; conditions: methicillin-resistant HO 5096 0412
Description: as §1, §2, §3

[4] = tested on: Pseudomonas aeruginosa PAO1; assay type: cell-based
Description: as §1, §2, §3

[5] = tested on: E. coli; assay type: cell-based, Escherichia coli; remark: listed apart in the source
Description: as §3
Quite early on in our drug development process, we have selected optP7 over optP1 for a slightly better MIC against P. aeruginosa. Further investigations were performed with peptide optP7 only. Firstly, we investigated E. coli cells treated with optP7 by transmission electron microscopy (TEM) to get a better understanding of the mode of action/ultrastructural changes of the peptides on E. coli, see Figure 1. In order to achieve a sufficient number of bacteria to form a pellet, a bacterial concentration of 1 × 10^8 CFU/ml was used. […] The outer membrane of E. coli of the untreated sample appears thick and relatively smooth (Figure 1, arrow 1), whereas for the peptide treated one, it was damaged (Figure 1, arrow 2) and blebbing was visible (Figure 1, arrow 3), where lipopolysaccharides (LPS) form small vesicles and are shed from the cell. The inner membrane for both, the untreated control (Figure 1A, arrow 4), and the peptide treated E. coli (Figure 1, arrow 5) seemed to remain intact and no spillage of the cytosol content was observed. The DNA in untreated bacterial cells comprised dispersed fibrils in the cytoplasm, see Figure 1, dotted lines. The bacterial DNA is concentrated in a ‘DNA–plasm’ called the nucleoid ([Ohniwa et al., 2007]). The peptide optP7 creates an enlarged and spherical nucleoid, dotted line in Figure 1., typically seen in DNA-dependent RNA polymerase inhibitors and protein synthesis inhibitors. Compared to the untreated bacteria (Figure 1, arrow 6), the peptide treated ones show more pronounced granular substructures (Figure 1, arrow 7) in the cytosol could indicate aggregation of cytosolic proteins. These substructures were observed before using small AMPs ([Von Gundlach et al., 2016a], [2019]).
Small-angle X-ray scattering for biological samples (BioSAXS) on the P12 beamline can be used to measure ultrastructural changes within the bacteria in the range between 2 and 157 nm, from which we used the range from 20 to 120 nm for analysis of the bacteria after treatment with the antimicrobial peptides. […] The MICs for the selected peptides against E. coli at 1 × 10^8 CFU/ml were determined (Table 2). […] To quantify the subtle changes between the different treatments we used a PCA analysis using SciXMiner and the “Peptide Extension” tool ([Mikut, 2010]; [Mikut et al., 2017]) (Figure 4). […]

[6] = tested on: human red blood cells; assay type: cell-based; conditions: for HC50 (peptide concentration needed to induce haemolysis in human red blood cells at 50%): red cells of human, 1 h
Procedure: The protocol to determine the haemolytic activity of the peptides and HC50 values were described previously ([Grimsey et al., 2020]). Briefly, human blood was washed and diluted with PBS (4% v/v) and incubated with a pre-made dilution series of the peptides and incubated for 1 h at 37 C. The 100% haemolysis value was achieved by incubation with Triton X (1% final concentration). Haemoglobin was measured at 414 and 546 nm using an ELISA plate reader. HC50 values were determined using the Prism software (GraphPad).

| Compound | MIC against E. coli (standard antibiotics) [1] | MIC E. coli [2] | MIC MRSA [3] | MIC PA (P. aeruginosa) [4] | MIC E. coli at 1 × 10^8 CFU/ml [5] | Therapeutic window HC50/MIC(MRSA) [6] | HC50 (peptide concentration needed to induce haemolysis in human red blood cells at 50%) [6] |
| --- | --- | --- | --- | --- | --- | --- | --- |
| O=C(N[C@H](CO)[C@H](O)c1ccc([N+](=O)[O-])cc1)C(Cl)Cl [chloramphenicol] | 8 µg/mL |  |  |  |  |  |  |
| CC[C@H](C)[C@H](NC(=O)[C@H](Cc1c[nH]c2ccccc12)NC(=O)[C@H](CCCNC(=N)N)NC(=O)[C@@H](NC(=O)[C@H](CCCNC(=N)N)NC(=O)[C@H](CCCNC(=N)N)NC(=O)[C@H](CCCCN)NC(=O)CNC(=O)[C@H](CCCCN)NC(=O)[C@@H]1CSSC[C@H](NC(=O)[C@H](CCCCN)NC(=O)CNC(=O)[C@H](CCCCN)NC(=O)[C@H](CCCNC(=N)N)NC(=O)[C@H](Cc2c[nH]c3ccccc23)NC(=O)[C@H](Cc2ccccc2)NC(=O)[C@@H]2CCCN2C(=O)[C@@H]2CCCN2C(=O)[C@H](CCCNC(=N)N)NC(=O)[C@@H](NC(=O)[C@@H]2CCCN2C(=O)[C@H](CCCNC(=N)N)NC(=O)[C@H](CCCNC(=N)N)NC(=O)[C@H](CCCNC(=N)N)NC(=O)[C@@H](NC(=O)[C@@H]2CCCN2C(=O)[C@H](CCCNC(=N)N)NC(=O)[C@H](CCCNC(=N)N)NC(=O)[C@H](Cc2c[nH]c3ccccc23)NC(=O)[C@@H](N)CCCNC(=N)N)[C@@H](C)CC)[C@@H](C)CC)C(=O)N[C@@H](CO)C(=O)N[C@@H](CO)C(=O)N1)C(C)C)C(=O)N[C@H](C(=O)N[C@@H](Cc1c[nH]c2ccccc12)C(N)=O)[C@@H](C)CC [hyP7B5Cys] (H-RWRRPIRRRPIRPPFWRKGKCSSCKGKRRVRWIIW-NH2; disulfide 21-24) |  | 0.6 µM (≈ 2.74 µg/mL) | 1 µM (≈ 4.57 µg/mL) | 2 µM (≈ 9.15 µg/mL) | 4 µM | >102 | 102 µM |
| CN(C)c1cc(NC(=O)CNC(C)(C)C)c(O)c2c1C[C@H]1C[C@H]3[C@H](N(C)C)C(O)=C(C(N)=O)C(=O)[C@@]3(O)C(O)=C1C2=O [tigecycline] | 4 µg/mL |  |  |  |  |  |  |
| VRKPPYLPRPRPRPL-NH2 [consP1] |  | 35 µM | >139 µM | >139 µM |  |  | >139 µM |
| RWRRPIRRRPIRPPFWRGGGKRRVRWIIW-NH2 [hyP7B5G] |  | 2 µM | 2 µM | 2 µM |  | 51 | 102 µM |
| VRKPPYLPRPRPRPLGGGKRRVRWIIW-NH2 [hyP7CoG1] |  | 1 µM | 5 µM | 5 µM |  | >30.8 | >154 µM |
| RWRRPIRRRPIRPPFWRKGKGKGKRRVRWIIW-NH2 [hyP7B5GK] |  | 1 µM | 1 µM | 2 µM | 4 µM | >120 | >120 µM |
| KRRVRWIIW-NH2 [optP7] |  | 1.5 µM | 6 µM | 3 µM | 14 µM | >32.5 | >195 µM |
| CO[C@H]1/C=C/O[C@@]2(C)Oc3c(C)c(O)c4c(O)c(c(/C=N/N5CCN(C)CC5)c(O)c4c3C2=O)NC(=O)/C(C)=C\C=C\[C@H](C)[C@H](O)[C@@H](C)[C@@H](O)[C@@H](C)[C@H](OC(C)=O)[C@@H]1C [rifampicin] | 15 µg/mL |  |  |  |  |  |  |
| KIILRIRWRGGGVRKPPYLPRPRPRPL-NH2 [hyP1CoG1] |  | 1 µM | 2.5 µM | 1 µM |  | >62.8 | >157 µM |
| KIILRIRWR-NH2 [optP1] |  | 1 µM | 1.5 µM | 6 µM |  | 137 | 205 µM |
| RWRRPIRRRPIRPPFWRKKKKRRVRWIIW-NH2 [hyP7B5K] |  | 2 µM | 2 µM | 2 µM |  | 41 | 82 µM |
| KRRVRWIIWGGGVRKPPYLPRPRPRPL-NH2 [hyP7CoG2] |  | 2.5 µM | 5 µM | 2.5 µM |  | >30.8 | >154 µM |
| RWRRPIRRRPIRPPFWR-NH2 [Bac5-v291] |  | 1.7 µM | 27 µM | 27 µM | 1.1 µM | >10.3 | >278 µM |
| VRKPPYLPRPRPRPLGGGKIILRIRWR-NH2 [hyP1CoG2] |  | 1 µM | 2.5 µM | 2.5 µM |  | >62.8 | >157 µM |
